Data on four compounds can be found in paper PMC8696986, “Synthesis and evaluation of 3′-[^18F]fluorothymidine-5′-squaryl as a bioisostere of 3′-[^18F]fluorothymidine-5′-monophosphate” (RSC Advances, 2021).

For data set [1] the following is noted: cited from earlier work.
Details of data set [2]: method as in PMID 12217356, PMID 27319940. As to conditions: cited from earlier work.
The subject of data set [3] is HCT116^shTMPK− tumours. Put plainly: Dynamic PET imaging, HCT116^shTMPK− xenografts. The class given is in vivo, female BALB/c athymic nude mice. As to conditions: mutant HCT116^shTMPK− xenograft, 2–10 min post-injection, PET time–activity curve. As to the method:
(§1) Female BALB/c athymic nude mice (6–8 weeks old), injected subcutaneously with either mutant HCT116^shTMPK− or WT HCT116 (Charles River UK Ltd., Margate, UK) at 5 × 10^6 cells per mouse, using dynamic PET imaging (Fig. 5A). Inoculations were performed under 2% isoflurane/O2 anesthesia 7 days after animal arrival. All mice were aged 10–16 weeks with similar weight (20 ± 2 g) and kept under standard conditions in individually ventilated cages (maximum of 6 animals per cage) prior to experiments.
BALB/c mice (Charles River UK Ltd, Margate, UK) were anesthetized and scanned on a dedicated small animal PET scanner (G4 Genesis, Sofie Biosciences, Culver City, CA, USA) following a bolus injection of 0.75 MBq of [^18F]SqFLT via a lateral tail vein cannula. Imaging was performed under 2% isoflurane/O2 anaesthesia. After tracer injection, emission scans were acquired in list-mode format (over 0–60 min – dynamic scans) to give decay-corrected values of radioactivity accumulation in tissues. The collected data were reconstructed with a 3-dimensional maximum likelihood estimation method 3D ML-EM (Sofie Biosciences). […] Tissue radioactivity uptake values were normalized to injected dose and mouse weight.

For data set [4], the system named is TK1 and ENT1/2 ([^18F]FLT uptake in HCT116 cells). As to the kind of experiment: In vitro competition assay between [^18F]FLT and thymidine/[^19F]SqFLT. The class given is cell-based, human. As to the method:
HCT116 were plated and maintained at 60–70% confluence in complete media conditions as previously described. […] Treated cells were incubated at 37 °C for 20 min before [^18F]FLT was added to each well to yield a final concentration of 0.74 mBq per well. Cells were subsequently incubated in a humidified atmosphere of 5% CO2 for 1 h before being lysed and gamma counted as previously described.
(§2) 6.0 Metabolite analysis in microsomes
Figure 31. Representative HPLC chromatograms showing A) parent [18F]SqFLT, and incubation of [18F]SqFLT with HLM for B) 30 mins and C) 60 mins.
The experiment was performed in triplicate (n = 3)
7.0 Gene structure and positions of CRISPR and PCR primers.
Figure 32. Diagram (not to scale) indicates overall gene structure and positions of the CRISPRS […]
8.0 Determining if [18F]SqFLT is a substrate for TK1 and ENT1/2 […]
and B) [19F]SqFLT to determine the effect on [18F]FLT uptake. HCT116 cells (at 60 – 70 % […]
for 20 min prior to co-incubation with [18F]FLT (0.74 MBq). Radioactive uptake normalised […]

A short description of data set [5]: In vitro metabolite analysis in human liver microsomes. The class given is in vitro ADME. The conditions noted are these: HLM, 37 °C, over 60 min. As for the experimental part: A published method for performing in vitro metabolite analysis using liver microsomes was adapted.[35] [^18F]SqFLT (40 μL, 3.5 MBq) was added to human liver microsomes (50 μL, 1 mg mL^−1), NADPH regeneration system A (50 μL), NADPH regeneration system B (10 μL) and PBS (400 μL, 0.1 M) in a 1.5 mL microcentrifuge tube. The mixture was gently vortexed and incubated in aerobic conditions at 37 °C with gentle shaking for either 30 min or 60 min using a thermomixer. The mixture was transferred into a 15 mL plastic centrifuge tube and proteins were precipitated with ice-cold MeCN + 0.1% TFA (2 mL) and vortexed. Proteins were pelleted by centrifugation (12 000g, 3 min), and the supernatant removed and filtered (0.2 μm). The supernatant was diluted (1 : 9) with H2O + 0.1% TFA and injected onto a HPLC instrument bearing a 1 mL injection loop and PosiRam (LabLogic, Sheffield, UK) metabolite detector. Samples of a known volume were taken from the supernatant and the entire protein pellet were counted using an auto-gamma counter (Perkin Elmer, London, UK) to determine the extraction efficiency. All experiments were performed in triplicate (n = 3).
as §2
Figure 31. Representative HPLC chromatograms showing A) parent [18F]SqFLT, and incubation of [18F]SqFLT with HLM for B) 30 mins and C) 60 mins. The extraction efficiency was 96.1 ± 0.4 %. […]
On the technique in general: Liver microsomes are vesicles of endoplasmic reticulum, rich in cytochrome P450 enzymes.

The target in data set [6] is T1, ABCB1 transporter (HCT116 cells) (Homo sapiens, UniProt P08183).
T1 construct: endogenous in cells; host or cells: HCT116 cells
As to the kind of experiment: Efflux assay with verapamil. As to conditions: verapamil 3 μM, 1 h pre-incubation then 1 h co-incubation. The class given is cell-based. As for the experimental part:
HCT116 cells were plated and maintained at 60–70% confluence in complete media conditions as previously described. Following 24 h, cell media was aspirated and treated with media containing 3 μM verapamil for 1 h prior to co-incubation with 0.74 mBq of [^18F]SqFLT. Cells were subsequently incubated for a further 1 h before being lysed and gamma counted as previously described.
9.0 Determining if [18F]SqFLT is a substrate for multidrug resistance proteins
0.00 Control 1 h Verapamil
Figure 34. Uptake of [18F]SqFLT in HCT116 cells following treatment with Verapamil. HCT 116 cells were pre-incubated with Verapamil (3 µM) for 60 min followed by co-incubated with [18F]SqFLT (0.74 MBq). One-way Anova statistical analysis and Dunnets post hoc was performed for n = 5 samples.
10.0 Time activity curves (TAC)
Figure 35. Time-activity curves derived from region-of-interest analysis of PET imaging data (including detail of uptake kinetics between 0-5 min of [18F]SqFLT injection) in bladder, kidneys and gallbladder. Data represent mean ± SEM (n>5) and is expressed as % of injected […]
1 M. Yun, S. J. Oh, H. J. Ha, J. S. Ryu and D. H. Moon, Nucl. Med. Biol., 2003, 30, 151–
2 C. N. Tetzlaff, I. Schwope, C. F. Bleczinski, J. A. Steinberg and C. Richert, Tetrahedron
(also on this page, place not known: [18F]-SqFLT (% ID/mg protein) uptake of 4215–4218.)
(1 picture or pasted object on this page, not shown here)

Data set [7] has as its system HCT116^shTMPK− cells. Put plainly: In vitro cell uptake of radiotracer in TMPK knockdown HCT116^shTMPK− cells. It counts as cell-based, human. The conditions noted are these: 0.74 MBq, 60 min incubation, n = 6, mean ± SEM. As to the method: (§3) HCT116 (human colon cancer; LGC Standards, Teddington, Middlesex, UK) and subsequent knockdown HCT116^shTMPK− cells were cultured in Roswell Park Memorial Institute Medium 1640 supplemented with 10% foetal bovine serum, 2% Penicillin-Streptomycin (5000 U mL^−1) and 1% L-Glutamine. Cells were maintained in a 5% CO2 humidified incubator at 37 °C and grown in 6-well plates at 300 000 cells per well or 1 500 000 cells (per 15 cm petri dish for HPLC) for the stated cell lines. All cells were grown for 24 h in a volume of 2 mL per well or 10 mL per petri dish unless stated otherwise. All cells were maintained at 60–70% confluence prior to experiments, passaged in our laboratory for fewer than 6 months on receipt and were tested mycoplasma free. Experiments were performed using cells under 10 passages.
Guide RNA (gRNA) sequences for CRISPR/Cas9 were generated from CRISPR design web site (http://crispr.mit.edu/), provided by the Feng Zhang Lab.[33] […]
[^18F]SqFLT (0.74 mBq per well) was added to individual wells and cells were incubated at 37 °C in a humidified atmosphere of 5% CO2 for 15, 30, 60, 90 and 120 min. […] Cell lysates were homogenized and transferred to radioactivity counting tubes. Radioactivity in each sample was counted using an auto-gamma counter (Perkin Elmer, London, UK). Total protein per sample was quantified using the Pierce™ BCA protein assay method. […]

Data set [8] has as its system WT HCT116 cells. Put plainly: In vitro cell uptake of radiotracer in WT HCT116 cells. The class given is cell-based, human. As for the experimental part: as §3
[^18F]SqFLT (0.74 mBq per well) was added to individual wells and cells were incubated at 37 °C in a humidified atmosphere of 5% CO2 for 15, 30, 60, 90 and 120 min. Following incubation, cells were washed three times with 1× PBS and lysed once ice for 15 min using RIPA buffer (1 mL per well). Cell lysates were homogenized and transferred to radioactivity counting tubes. Radioactivity in each sample was counted using an auto-gamma counter (Perkin Elmer, London, UK). Total protein per sample was quantified using the Pierce™ BCA protein assay method. Decay corrected counts were normalized to protein concentration as percentage incubated dose per milligram of cellular protein (%ID per mg protein) in each sample.

Data set [9] concerns WT HCT116 tumours. Put plainly: Dynamic PET imaging, WT HCT116 xenografts. The class given is in vivo, female BALB/c athymic nude mice. As for the experimental part:
as §1
BALB/c mice (Charles River UK Ltd, Margate, UK) were anesthetized and scanned on a dedicated small animal PET scanner (G4 Genesis, Sofie Biosciences, Culver City, CA, USA) following a bolus injection of 0.75 MBq of [^18F]SqFLT via a lateral tail vein cannula. Imaging was performed under 2% isoflurane/O2 anaesthesia. After tracer injection, emission scans were acquired in list-mode format (over 0–60 min – dynamic scans) to give decay-corrected values of radioactivity accumulation in tissues. The collected data were reconstructed with a 3-dimensional maximum likelihood estimation method 3D ML-EM (Sofie Biosciences). Cumulative images of the data were used for visualization of radiotracer uptake and to define tissue volumes of interest (VOIs) using Siemens Inveon Research Workplace software (Siemens Molecular Imaging, Inc. Knoxville, USA). Tissue radioactivity uptake values were normalized to injected dose and mouse weight.

Data set [10] in a line: Log D7.5 determination (shake flask method). It counts as physicochemical. As to conditions: octanol/PBS pH 7.5, mean ± SD, n = 3. As to the method:
The hydrophilicity of [^18F]SqFLT (>90% RCP) was determined experimentally by its Log D7.5 using the shake flask method. […] Being a highly hydrophilic molecule, we were sceptical that [^18F]SqFLT would be cell permeable and aimed to determine this experimentally in radioactive cell uptake experiments.
To a 1.5 mL microcentrifuge tube was added PBS pH 7.5 (500 μL) and octanol (500 μL). The tube was shaken for 15 min, followed by centrifugation (13 000g, 5 min). [^18F]SqFLT (3 MBq) in PBS (<5% EtOH) was added and the samples shaken for 30 min, followed by centrifugation (13 000g, 5 min). Aliquots from the octanol layer and PBS layer were removed (100 μL) and placed in counting tubes. Radioactivity was measured using a γ-counter and the partition coefficient was calculated using Log D7.5 = log10[Oct/PBS]. The Log D7.5 value was reported as mean ± SD (n = 3, triplicate analysis).

Like-named read-outs stand apart in the source and are kept apart here.

As usually defined, the logD is lipophilicity at a set pH, counting ionised and neutral species.

T1 sequence (P08183 whole entry): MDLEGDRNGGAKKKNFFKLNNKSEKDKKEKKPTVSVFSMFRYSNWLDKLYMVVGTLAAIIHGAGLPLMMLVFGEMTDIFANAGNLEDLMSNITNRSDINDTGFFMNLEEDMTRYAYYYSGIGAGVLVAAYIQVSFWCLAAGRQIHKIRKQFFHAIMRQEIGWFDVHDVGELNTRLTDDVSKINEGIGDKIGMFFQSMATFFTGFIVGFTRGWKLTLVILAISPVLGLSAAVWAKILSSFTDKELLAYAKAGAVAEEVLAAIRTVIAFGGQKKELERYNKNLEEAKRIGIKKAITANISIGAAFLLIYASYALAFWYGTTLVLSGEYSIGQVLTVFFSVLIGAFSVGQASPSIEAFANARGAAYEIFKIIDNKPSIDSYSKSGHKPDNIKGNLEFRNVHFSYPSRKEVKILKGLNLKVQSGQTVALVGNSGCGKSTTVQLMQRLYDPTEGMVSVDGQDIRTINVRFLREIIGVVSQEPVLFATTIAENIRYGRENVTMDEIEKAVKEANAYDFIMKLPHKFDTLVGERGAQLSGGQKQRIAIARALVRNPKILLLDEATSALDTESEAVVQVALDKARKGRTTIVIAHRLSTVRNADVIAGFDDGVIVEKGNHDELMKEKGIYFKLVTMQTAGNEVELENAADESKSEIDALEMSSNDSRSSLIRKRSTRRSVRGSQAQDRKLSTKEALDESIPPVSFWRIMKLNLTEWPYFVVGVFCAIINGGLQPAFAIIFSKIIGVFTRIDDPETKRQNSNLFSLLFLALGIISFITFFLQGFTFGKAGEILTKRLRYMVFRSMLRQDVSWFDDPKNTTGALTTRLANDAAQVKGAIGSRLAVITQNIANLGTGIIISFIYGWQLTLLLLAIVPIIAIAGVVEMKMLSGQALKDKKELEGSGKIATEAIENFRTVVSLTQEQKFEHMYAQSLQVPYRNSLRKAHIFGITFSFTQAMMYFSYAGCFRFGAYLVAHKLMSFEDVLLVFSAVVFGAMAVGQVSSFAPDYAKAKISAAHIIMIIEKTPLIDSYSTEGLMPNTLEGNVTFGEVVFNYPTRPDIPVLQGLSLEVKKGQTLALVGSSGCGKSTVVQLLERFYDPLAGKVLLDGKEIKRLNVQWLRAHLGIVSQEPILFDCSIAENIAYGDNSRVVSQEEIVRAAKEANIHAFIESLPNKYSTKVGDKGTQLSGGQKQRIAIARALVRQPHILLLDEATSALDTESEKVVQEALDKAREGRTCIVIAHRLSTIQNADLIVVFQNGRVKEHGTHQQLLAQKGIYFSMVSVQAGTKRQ

With `O=c1c(O)c(NCc2ccccc2)c1=O` [3-(benzylamino)-4-hydroxycyclobut-3-ene-1,2-dione], the permeability result in data set [1] (PAMPA) was “significantly higher permeability compared to a phosphate analogue”. The “Log D7.4” value in data set [1] (pH 7.4) is recorded as −1.4.
Regarding “3′-[^18F]fluorothymidine-5′-monophosphate [[^18F]FLTMP]”, the figures for the “monophosphate pKa” value in data set [2] (first value) and in data set [2] (second value) were 1.6 and 6.6, respectively.
On to `Cc1cn([C@H]2C[C@H]([18F])[C@@H](CNc3c(O)c(=O)c3=O)O2)c(=O)[nH]c1=O` [[^18F]SqFLT, 3′-[^18F]fluorothymidine-5′-squaryl], for which the “peak radiotracer uptake in tumour” value in data set [3] is listed as 1.58 ± 0.12 % ID g^−1; in data set [9] (WT HCT116 xenograft, 2–10 min post-injection, PET time–activity curve) it was 2.69 ± 0.12 % ID g^−1. The “dependence of uptake on TK1 and nucleoside transporters (ENT1/2)” value in [4] (inferred from competition of [^19F]SqFLT (1–10 μg mL^−1) with [^18F]FLT) is “independent of TK1 and nucleoside transporters (ENT1/2)”. The “metabolism in human liver microsomes” value in data set [5] is on record as “no metabolism over 60 min”. Besides, the “effect of verapamil on radiotracer uptake” value in data set [6] is on record as “did not change radiotracer uptake”. Moreover, the “uptake of [^18F]SqFLT” value in [7] came out at 0.14 ± 0.04 % ID g^−1; in data set [8] (WT HCT116, 0.74 MBq, 60 min incubation, n = 6, mean ± SEM), 0.24 ± 0.04 % ID mg^−1. Moreover, the “tracer uptake in vitro” value in data set [8] (HCT116 and HCT116^shTMPK− cells, as summed up in the abstract) is given as less than 0.3 % ID mg^−1. Besides, in [8] (WT HCT116, between 15–120 min), the drop of uptake is 2 fold. Also, the “time of peak uptake” value in data set [8] (WT HCT116, uptake kinetic profile over 120 min) is 0 to 15 min. Moreover, the route of elimination result in [9] (mice, PET time-activity curves) was “eliminated through the kidney, liver, and bladder”. Moreover, in data set [9] (post-injection, WT and mutant xenografts, 60 min dynamic PET scan), the “time of peak radiotracer uptake in tumour” value fell in the range of 2 to 10 min. This compound also came in with a logD in [10] of -2.9 ± 0.24.
As for `Cc1cn([C@H]2C[C@H](F)[C@@H](CNc3c(O)c(=O)c3=O)O2)c(=O)[nH]c1=O` [[^19F]SqFLT, 5′-amino-5′-N-(2-hydroxy-3,4-dioxocyclobuten-1-yl)-5′,3′-deoxy-3′-fluoro-thymidine], in data set [4] (10^−3–10^1 μg mL^−1, 20 min before [^18F]FLT, then 1 h), the “effect on [^18F]FLT uptake” value is “did not inhibit [^18F]FLT uptake”.
